Experimental data from PMC7684764 (Journal of medicinal chemistry, 2020).

Legend:
[1] = molecular target: T1, APN (CD13, microsomal aminopeptidase) (Sus scrofa, UniProt P15145); assay: CD13 inhibition assay; format: biochemical, porcine; details: 13a 50 μM and 10 μM, Figure S4
T1 sequence (P15145 1-963): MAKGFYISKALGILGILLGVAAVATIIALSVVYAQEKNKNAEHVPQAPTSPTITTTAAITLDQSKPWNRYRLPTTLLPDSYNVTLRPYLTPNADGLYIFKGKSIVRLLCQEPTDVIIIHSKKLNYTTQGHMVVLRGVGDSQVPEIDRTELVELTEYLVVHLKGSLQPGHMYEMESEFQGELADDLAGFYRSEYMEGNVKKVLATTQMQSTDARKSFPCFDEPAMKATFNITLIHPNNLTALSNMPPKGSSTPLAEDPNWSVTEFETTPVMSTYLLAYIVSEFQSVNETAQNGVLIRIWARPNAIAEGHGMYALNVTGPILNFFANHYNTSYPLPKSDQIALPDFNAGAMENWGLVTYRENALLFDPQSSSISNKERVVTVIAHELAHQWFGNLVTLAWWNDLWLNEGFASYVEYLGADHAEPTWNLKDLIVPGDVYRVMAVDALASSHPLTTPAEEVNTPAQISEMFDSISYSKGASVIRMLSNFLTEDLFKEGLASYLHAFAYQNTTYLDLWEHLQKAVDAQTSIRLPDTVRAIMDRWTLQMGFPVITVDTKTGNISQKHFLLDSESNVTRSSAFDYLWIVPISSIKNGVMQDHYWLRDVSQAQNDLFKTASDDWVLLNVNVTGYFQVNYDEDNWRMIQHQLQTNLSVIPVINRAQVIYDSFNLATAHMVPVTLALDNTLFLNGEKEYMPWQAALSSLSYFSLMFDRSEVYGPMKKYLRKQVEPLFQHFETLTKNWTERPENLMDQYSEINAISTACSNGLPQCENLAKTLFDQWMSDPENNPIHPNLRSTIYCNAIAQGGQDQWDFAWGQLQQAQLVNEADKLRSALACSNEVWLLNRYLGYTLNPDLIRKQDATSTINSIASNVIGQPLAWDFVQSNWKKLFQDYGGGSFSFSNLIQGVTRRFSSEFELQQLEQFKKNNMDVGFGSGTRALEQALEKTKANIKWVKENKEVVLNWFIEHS

MV4–11 cells [2] = assay: Release profile by western blot after drug wash-out; format: cell-based; details: MV4–11, 3 h treatment, up to 6 h, Figure 3B
MV4–11 cells [3] = assay: Western blot analysis; format: cell-based; details: for increase in Hsp70 levels: 24 h, Figures 5A and C (MV4–11 and RS4;11); for FLT3 and STAT5 levels / pro-caspase3 cleavage: wt-p53 FLT3-ITD MV4–11, 24 h, Figure 5A
RS4;11 cells = assay: Western blot analysis; format: cell-based; details: wt-p53 wt-FLT3 RS4;11, 24 h; 13a 200 nM, panobinostat 100 nM, vorinostat 5000 nM
HL60 cells = assay: Western blot analysis; format: cell-based; details: p53-null wt-FLT3 HL60, 24 h, Figure 5D
SR cell line = assay: Western blot analysis; format: cell-based; details: wt-p53 SR, 24 h, Figure S7
MV4–11 cells [4] = assay: Combination index; format: cell-based; details: MV4–11, 48 h, lower concentrations, Figure S8
NCI60 tumor cell lines = NCI60 tumor cell lines screen, whole panel; format: cell-based; details: concentrations under 10 μM
[5] = tested on: Salmonella typhimurium strain (with modified TA100); details: with liver S9 fraction activation
MV4–11 cells [6] = assay: EC50 analysis; format: cell-based; details: MV4–11, 50 μM
HDAC1 = HDAC1 (Homo sapiens, UniProt Q13547); assay: In vitro HDACs inhibition fluorescence assay; format: biochemical; details: IC50 curves after pre-incubation of 10, 30, 60 and 90 min, Figure 3A
HDAC1, sequence (Q13547 whole entry): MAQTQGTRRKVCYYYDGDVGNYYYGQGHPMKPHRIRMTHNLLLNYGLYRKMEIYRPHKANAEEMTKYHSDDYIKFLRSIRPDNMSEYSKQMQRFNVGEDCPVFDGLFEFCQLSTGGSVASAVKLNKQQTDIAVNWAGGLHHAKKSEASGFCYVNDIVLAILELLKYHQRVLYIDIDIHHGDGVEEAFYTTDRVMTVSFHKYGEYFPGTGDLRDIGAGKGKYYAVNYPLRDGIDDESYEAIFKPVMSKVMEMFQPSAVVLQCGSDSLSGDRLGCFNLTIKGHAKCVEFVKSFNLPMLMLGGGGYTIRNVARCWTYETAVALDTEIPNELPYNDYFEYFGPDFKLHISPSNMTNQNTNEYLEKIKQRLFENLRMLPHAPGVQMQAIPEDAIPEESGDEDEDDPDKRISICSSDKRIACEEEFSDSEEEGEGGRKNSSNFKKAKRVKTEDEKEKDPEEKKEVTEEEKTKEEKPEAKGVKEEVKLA

HDAC3 = HDAC3 (Homo sapiens, UniProt O15379); assay: In vitro HDACs inhibition fluorescence assay; format: biochemical
HDAC3, sequence (O15379 whole entry): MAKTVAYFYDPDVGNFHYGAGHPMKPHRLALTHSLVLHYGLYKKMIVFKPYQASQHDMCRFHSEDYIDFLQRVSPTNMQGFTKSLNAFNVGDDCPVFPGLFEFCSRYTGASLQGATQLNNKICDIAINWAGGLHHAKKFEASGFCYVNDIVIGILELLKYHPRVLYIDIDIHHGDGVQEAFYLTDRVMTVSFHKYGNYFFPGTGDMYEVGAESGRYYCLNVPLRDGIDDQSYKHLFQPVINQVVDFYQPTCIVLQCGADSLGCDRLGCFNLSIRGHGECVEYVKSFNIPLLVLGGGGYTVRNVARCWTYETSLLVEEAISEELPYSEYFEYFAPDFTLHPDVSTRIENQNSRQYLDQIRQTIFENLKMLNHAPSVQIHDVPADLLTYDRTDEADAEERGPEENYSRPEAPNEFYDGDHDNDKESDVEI
HDAC3, sequence (Q9Y618 395-489 partner limits assumed): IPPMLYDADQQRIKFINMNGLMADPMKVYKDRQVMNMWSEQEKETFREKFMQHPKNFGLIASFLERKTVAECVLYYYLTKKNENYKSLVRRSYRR

In the case of `CCCNNC(=O)/C=C/c1ccc(CNCCc2c(C)[nH]c3ccccc23)cc1.O=C(O)C(F)(F)F` [Compound 13a, (E)-2-(2-methyl-1H-indol-3-yl)-N-(4-(3-oxo-3-(2-propylhydrazinyl)prop-1-en-1-yl)benzyl)ethanaminium 2,2,2-trifluoroacetate], the “inhibition of APN” value [1] is reported as “does not show any inhibition”, the acetylation of tubulin (MV4–11 cells [2]) is reported as “does not increase the acetylation of tubulin” and the “histone acetylation after removal of drug” value (MV4–11 cells [2]) is reported as “does not decrease within 6 h”. The “increase in Hsp70 levels” value (MV4–11 cells [3]) was “not observed”, the “FLT3 and STAT5 levels” value (MV4–11 cells [3]) was “down-regulate” and the pro-caspase3 cleavage (MV4–11 cells [3]) was “observed”. The “cleavage of pro-caspase3” value (RS4;11 cells) was “only observed at high dose”, the pro-caspase3 cleavage (HL60 cells) was “not cleaved” and the pro-caspase3 cleavage (SR cell line) was “does not cleave”. For the same compound, the “interaction of 13a with 17-AAG in anti-proliferation activity” value (MV4–11 cells [4]) was “antagonized”, the “number of the 60 cell lines with lethality under 10 μM” value (NCI60 tumor cell lines) was 10 and the “mutagenicity, Mini-Ames” value [5] was “not mutagenic”.
`Cc1[nH]c2ccccc2c1CCNCc1ccc(/C=C/C(=O)NN2CCCCC2)cc1.O=C(O)C(F)(F)F` [Compound 26c, (E)-2-(2-methyl-1H-indol-3-yl)-N-(4-(3-oxo-3-(piperidin-1-ylamino)prop-1-en-1-yl)benzyl)ethanaminium 2,2,2-trifluoroacetate] was tested, and the “effect on cell proliferation at 50 μM” value (MV4–11 cells [6]) was “do not affect cell proliferation”.
With `Cc1[nH]c2ccccc2c1CCNCc1ccc(/C=C/C(=O)NN2CCCC2)cc1.O=C(O)C(F)(F)F` [Compound 26b, (E)-2-(2-methyl-1H-indol-3-yl)-N-(4-(3-oxo-3-(pyrrolidin-1-ylamino)prop-1-en-1-yl)benzyl)ethanaminium 2,2,2-trifluoroacetate] the “effect on cell proliferation at 50 μM” value (MV4–11 cells [6]) was “do not affect cell proliferation”.
In the case of `CCCNNC(=O)c1ccc(CNC(=O)/C=C/c2ccccc2)cc1` [LP411], the “FLT3 and STAT5 levels” value (MV4–11 cells [3]) is reported as “down-regulate” and the pro-caspase3 cleavage (MV4–11 cells [3]) is reported as “observed”.
With `Nc1ccccc1NC(=O)c1ccc(CNC(=O)OCc2cccnc2)cc1` [Entinostat, entinostat] the pro-caspase3 cleavage (MV4–11 cells [3]) was “observed”.
For `Cc1[nH]c2ccccc2c1CCNCc1ccc(/C=C/C(=O)NO)cc1` [Panobinostat], the “on-kinetics, HDAC1” value (HDAC1) was “fast-on kinetics”, the “on-kinetics, HDAC3” value (HDAC3) was “fast-on kinetics” and the acetylation of tubulin (MV4–11 cells [2]) was “completely disappears after 30 min”. For the same compound, the “histone acetylation after removal of drug” value (MV4–11 cells [2]) was “begins to decrease after 1 h”, the “increase in Hsp70 levels” value (MV4–11 cells [3]) was “observed” and the pro-caspase3 cleavage (MV4–11 cells [3]) was “observed”. For the same compound, the “cleavage of pro-caspase3” value (RS4;11 cells) was “observed”, the “number of the 60 cell lines with lethality under 10 μM” value (NCI60 tumor cell lines) was 18 and the “mutagenicity, Mini-Ames” value [5] was “Ames positive”.
For `Cc1[nH]c2ccccc2c1CCNCc1ccc(/C=C/C(=O)NN(C)C)cc1.O=C(O)C(F)(F)F` [Compound 26a, (E)-N-(4-(3-(2,2-dimethylhydrazinyl)-3-oxoprop-1-en-1-yl)benzyl)-2-(2-methyl-1H-indol-3-yl)ethanaminium 2,2,2-trifluoroacetate], the “effect on cell proliferation at 50 μM” value (MV4–11 cells [6]) was “do not affect cell proliferation”.
With `Cc1[nH]c2ccccc2c1CCNCc1ccc(/C=C/C(=O)NN(CCCO)CCCO)cc1.O=C(O)C(F)(F)F` [Compound 30, (E)-N-(4-(3-(2,2-bis(3-hydroxypropyl)hydrazinyl)-3-oxoprop-1-en-1-yl)benzyl)-2-(2-methyl-1H-indol-3-yl)ethanaminium 2,2,2-trifluoroacetate] the “effect on cell proliferation at 50 μM” value (MV4–11 cells [6]) was “do not affect cell proliferation”.
`Nc1ccc2cc3ccccc3cc2c1` [2-aminoanthracene] was tested, and the “mutagenicity, Mini-Ames” value [5] was “Ames positive”.
